Read-outs that look alike come from different tables or passages of the source.
What was measured:
Ba/F3_EGFR WT cells = test: Biological Activity Assay D: BaF3 cell proliferation assay, EGFR wild-type (BaF3 WT); assay type: cell-based; conditions: Ba/F3 EGFR, read-out: BaF3 WT IC50
Experimental: (§1) One frozen vial of cells should be thawed into one T25 flask in 10 mL media. Keep the flask upright in the incubator.
(§2) Method: One frozen vial of cells was thawed into one T25 flask in 10 mL media and the flask was kept upright in the incubator. Cells were split 1:10 every two to three days when cells reached confluency of around 1×10^6 cells/mL. Bravo protocol files were used with Greiner 384-well plates for all steps of compound preparation, cell plating and compound addition. […] 16 μL of DMSO were added (for compounds starting at 20 μM) or 28 μL DMSO (for compounds starting at 5 μM) to 96-well V-bottom polypropylene plate: wells 1A-1H (8 compounds/plate). […] 20 μL DMSO were added to the remainder of the wells (columns 2-12) in the 96-well V-bottom plate. A Bravo liquid handler was used to make 1:3 serial dilutions from columns 1 to 11 (12 remains as DMSO only) to prepare the DMSO dilution plate. 144 μL media were added to each well of a new 96-well V-bottom polypropylene plate to prepare the intermediate dilution plate. A Bravo or 96-head Integra liquid handler was used to add and mix 6 μL of test compound from the DMSO dilution plate to the intermediate dilution plate. (1:25 dilution). Cells were transferred from a flask into a 50 mL conical, vortex gently and the number of cells were counted, with a target cell number of about 1×10^6 cells per mL. The cells were diluted in culture medium in 50 mL conical or T25 flask, and the cell suspension was added to BRAVO reservoir and then use Bravo protocol to plate the appropriate number of cells shown below in 36 μl of medium per well as follows: Ba/F3-WT-EGFR 2000 cells per well of a 384 well plate; Ba/F3-LR/CS-EGFR 2000 cells per well of a 384 well plate; and Ba/F3-d19/CS-EGFR 1500 cells per well of a 384 well plate. An extra 10 mL of dead volume was utilized in each reservoir.
(§3) Using a Bravo liquid handler, 4 μl of test compound solution was added per well from the intermediate dilution plate to plated cells (1:10 dilution from the intermediate plate, final compound dilution 1:250 and final DMSO concentration per well is 0.4%). Using the 96 BRAVO Head, 25 μl were aspirated from the intermediate dilution plate and 4 μl each were dispensed into 4 wells (square pattern) in the 384-well plate. Any remaining test compound is dispensed into a secondary plate to prevent cross contamination of cells in the intermediate compound plate. After the compounds were added, the plate was shaken at 600 rpm gently for 60 see, and the plates were incubated in a tissue culture incubator, 37° C., 5% CO2, for ˜ 72 hours. After incubation, CTG 2.0 reagent was allowed to equilibrate to room temperature (˜3 hours) and cells to reach room temperature (˜10-15 minutes) and reagent was added to cells (40 μL/well) using a Bravo liquid handler. The plates were shaken to allow proper mixing (˜5 min) and let settle for 10 minutes and were read on Tecan plate reader using the appropriate luminescence method. Data from plate reader was transferred to an excel file and entered directly into Dotmatics using the protocols under EGFR Project/Cell Proliferation/named: “BaF3_EGFRwt_CP”, “BaF3_EGFR_d19/CS_CP”, “BaF3_EGFR_LR/CS_CP”. Curves were fit with a 4-parameter model and IC50s calculated by the Dotmatics software. DMSO wells were averaged to define the high control (100% growth). The average of the highest concentration of the positive control compound (afatinib) was used to define the 0% growth and used to lock the bottom of the curves. The tops of the curves were not fixed.

BaF3_EGFR LR/CS cells = test: Biological Activity Assay D: BaF3 cell proliferation assay, EGFR L858R/C797S mutant (BaF3 LR/CS); assay type: cell-based; conditions: Ba/F3 EGFR, read-out: BaF3 LR/CS IC50
Experimental: as §1, §2, §3

BaF3_EGFR d19/CS cells = test: Biological Activity Assay D: BaF3 cell proliferation assay, EGFR exon 19 deletion/C797S (BaF3 d19/CS); assay type: cell-based; conditions: Ba/F3 EGFR, read-out: BaF3 d19/CS IC50
Experimental: as §1, §2, §3

[1] = target: recombinant human EGFR exon 19 deletion/C797S double mutant protein (Homo sapiens (Human), UniProt P00533, C797S/DEL746-750); test: Biological Activity Assay C: biochemical assay against EGFR exon 19 deletion/C797S protein (EGFR d19/CS)
Experimental: In Row A of a 384-well polypropylene plate, was added 48 μL of DMSO. In wells A1 and A24, were added 12 μL of DMSO. […] To a well in Row A were added 12 μL of each 10 mM test compound stock (100% DMSO). […] The final intermediate dilution plate contained 4×16-point compound serial dilutions in assay buffer. The DMSO concentration was 10%. The intermediate compound dilution plate was transferred to the Bravo and the “5 uL dispense into ARP.pro” protocol was run. To the black low volume assay ready plates, were added 5 μL of 40 uM Phosphosens peptide sensor/4 mM ATP working solution to each well. […] To column 24, was added 10 μL of assay buffer. The final DMSO concentration was 2.5%. […] The plates were sealed with the TopSeal-A Plus plate seals. […] Set for 90 cycles with 120 second interval. […] The slope of each curve was constructed using Dotmatics in each well, and each IC50s was calculated using a 4-parameter fit model.

[2] = Ba/F3_EGFR WT cells, ~72 hours, CellTiter-Glo
[3] = BaF3_EGFR LR/CS cells, ~72 hours, CellTiter-Glo
[4] = BaF3_EGFR d19/CS cells, ~72 hours, CellTiter-Glo

Chain of recombinant human EGFR exon 19 deletion/C797S double mutant protein (P00533 other isoform, or with tags, fused parts or gaps C797S/del 1-668/del 746-750 limits assumed): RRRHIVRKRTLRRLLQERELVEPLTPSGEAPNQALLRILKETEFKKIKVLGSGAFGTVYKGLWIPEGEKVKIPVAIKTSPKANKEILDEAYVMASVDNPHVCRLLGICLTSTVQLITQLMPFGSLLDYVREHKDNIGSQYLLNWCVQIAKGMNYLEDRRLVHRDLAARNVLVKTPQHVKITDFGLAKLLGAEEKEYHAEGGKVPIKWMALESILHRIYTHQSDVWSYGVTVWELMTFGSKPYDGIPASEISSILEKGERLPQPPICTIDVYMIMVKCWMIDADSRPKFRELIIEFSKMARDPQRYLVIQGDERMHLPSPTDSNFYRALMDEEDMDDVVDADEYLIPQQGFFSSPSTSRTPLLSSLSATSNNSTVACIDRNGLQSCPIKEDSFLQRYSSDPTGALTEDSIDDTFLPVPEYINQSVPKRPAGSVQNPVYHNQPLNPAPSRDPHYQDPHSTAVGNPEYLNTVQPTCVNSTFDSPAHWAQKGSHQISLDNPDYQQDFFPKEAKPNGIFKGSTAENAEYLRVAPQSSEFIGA

IC50 (Ba/F3_EGFR WT cells; [2]) [nM] | IC50 (BaF3_EGFR LR/CS cells; [3]) [nM] | IC50 (BaF3_EGFR d19/CS cells; [4]) [nM] | IC50 [1] [nM] | Compound | IC50 (Ba/F3_EGFR WT cells; 72 h) [nM] | IC50 (BaF3_EGFR LR/CS cells; 72 h) [nM] | IC50 (BaF3_EGFR d19/CS cells; 72 h) [nM]
1180 | 12.6 | 29.8 | 0.14 | O[C@H]1C[C@H](n2cc(-c3ncnc4oc(-c5ccccc5)cc34)c(-c3ccc(F)cc3)n2)C1 [Example 121, (1r,3r)-3-(3-(4-Fluorophenyl)-4-(6-phenylfuro[2,3-d]pyrimidin-4-yl)-1H-pyrazol-1-yl)cyclobutan-1-ol] | – | – | –
3890 | 96.1 | 260 | 2.89 | Fc1ccc(-c2nn(CC3CC(F)(F)C3)cc2-c2ncnc3oc(-c4ccccc4)cc23)cc1 [Example 123, 4-{1-[(3,3-difluorocyclobutyl)methyl]-3-(4-fluorophenyl)-1H-pyrazol-4-yl}-6-phenylfuro[2,3-d]pyrimidine] | – | – | –
4270 | 230 | 611 | 3.02 | Fc1ccc(-c2nn(C[C@H]3C[C@H](F)C3)cc2-c2ncnc3oc(-c4ccccc4)cc23)cc1 [Example 124, 4-[1-{[(1r,3r)-3-fluorocyclobutyl]methyl}-3-(4-fluorophenyl)-1H-pyrazol-4-yl]-6-phenylfuro[2,3-d]pyrimidine] | – | – | –
3680 | 15.8 | 24.6 | 0.09 | O=S1(=O)CC(n2cc(-c3ncnc4[nH]c(-c5ccccc5)nc34)c(-c3ccc(F)cc3)n2)C1 [Example 127, 3-[3-(4-Fluorophenyl)-4-(8-phenyl-9H-purin-6-yl)-1H-pyrazol-1-yl]-1λ6-thietane-1,1-dione] | – | – | –
2340 | 10.1 | 12 | 0.12 | CC(C)(O)Cn1cc(-c2ncnc3[nH]c(-c4ccccc4)nc23)c(-c2ccc(F)cc2)n1 [Example 130, 1-[3-(4-Fluorophenyl)-4-(8-phenyl-9H-purin-6-yl)-1H-pyrazol-1-yl]-2-methylpropan-2-ol] | – | – | –
3000 | 81.9 | 162 | 1.04 | CS(=O)(=O)CCn1cc(-c2ncnc3[nH]c(-c4ccccc4)nc23)c(-c2ccc(F)cc2)n1 [Example 131, 6-{3-(4-fluorophenyl)-1-[2-(methanesulfonyl)ethyl]-1H-pyrazol-4-yl}-8-phenyl-9H-purine] | – | – | –
5490 | 1160 | 860 | 1.51 | CC(C)(C)OC(=O)N1CC(C#Cc2cc3c(-c4cn(C5CS(=O)(=O)C5)nc4-c4ccc(F)cc4)ncnc3o2)C1 [Example 132, tert-butyl 3-({4-[1-(1,1-dioxo-1λ6-thietan-3-yl)-3-(4-fluorophenyl)-1H-pyrazol-4-yl]furo[2,3-d]pyrimidin-6-yl}ethynyl)azetidine-1-carboxylate] | – | – | –
7550 | 2190 | 1190 | 7.1 | O=S1(=O)CC(n2cc(-c3ncnc4oc(C#CC5CNC5)cc34)c(-c3ccc(F)cc3)n2)C1 [Example 133, 3-[4-{6-[(azetidin-3-yl)ethynyl]furo[2,3-d]pyrimidin-4-yl}-3-(4-fluorophenyl)-1H-pyrazol-1-yl]-1λ6-thietane-1,1-dione] | – | – | –
1160 | 17.1 | 31.9 | 0.33 | FCCn1cc(-c2ncnc3oc(-c4ccccc4)cc23)c(-c2ccc(F)cc2)n1 [Example 135, 4-[1-(2-Fluoroethyl)-3-(4-fluorophenyl)-1H-pyrazol-4-yl]-6-phenylfuro[2,3-d]pyrimidine] | – | – | –
1390 | 94.4 | 63.7 | 0.5 | CC(=O)N1CC=C(c2cc3c(-c4cn(CC(C)(C)O)nc4-c4ccc(F)cc4)ncnc3o2)CC1 [Example 138, 1-[4-{4-[3-(4-Fluorophenyl)-1-(2-hydroxy-2-methylpropyl)-1H-pyrazol-4-yl]furo[2,3-d]pyrimidin-6-yl}-3,6-dihydropyridin-1 (2H)-yl]ethan-1-one] | – | – | –
10300 | 574 | 551 | 8.55 | CC(C)(C)OC(=O)N1C=C(c2cc3c(-c4cn(C5CS(=O)(=O)C5)nc4-c4ccc(F)cc4)ncnc3o2)CCC1 [Example 139, tert-butyl 5-{4-[1-(1,1-dioxo-1λ6-thietan-3-yl)-3-(4-fluorophenyl)-1H-pyrazol-4-yl]furo[2,3-d]pyrimidin-6-yl}-3,4-dihydropyridine-1(2H)-carboxylate] | – | – | –
5680 | 1630 | 916 | 3.32 | CC(=O)N1CC(C#Cc2cc3c(-c4cn(C5CS(=O)(=O)C5)nc4-c4ccc(F)cc4)ncnc3o2)C1 [Example 140, 3-[4-{6-[(1-Acetylazetidin-3-yl)ethynyl]furo[2,3-d]pyrimidin-4-yl}-3-(4-fluorophenyl)-1H-pyrazol-1-yl]-16-thietane-1,1-dione] | – | – | –
6070 | 313 | 398 | 5.19 | Fc1ccc(-c2nn(C3CCC(F)(F)CC3)cc2-c2ncnc3oc(-c4ccccc4)cc23)cc1 [Example 142, 4-[1-(4,4-difluorocyclohexyl)-3-(4-fluorophenyl)-1H-pyrazol-4-yl]-6-phenylfuro[2,3-d]pyrimidine] | – | – | –
663 | 59.8 | 94.3 | 0.38 | CNC(=O)Cn1cc(-c2ncnc3oc(-c4ccccc4)cc23)c(-c2ccc(F)cc2)n1 [Example 143, 2-[3-(4-Fluorophenyl)-4-(6-phenylfuro[2,3-d]pyrimidin-4-yl)-1H-pyrazol-1-yl]-N-methylacetamide] | – | – | –
3210 | 83.6 | 114 | 0.55 | CC(C)(O)CCn1cc(-c2ncnc3[nH]c(-c4ccccc4)nc23)c(-c2ccc(F)cc2)n1 [Example 145, 4-[3-(4-fluorophenyl)-4-(8-phenyl-9H-purin-6-yl)-1H-pyrazol-1-yl]-2-methylbutan-2-ol] | – | – | –

Compound | IC50 (Ba/F3_EGFR WT cells; [2]) [nM] | IC50 (BaF3_EGFR LR/CS cells; [3]) [nM] | IC50 (BaF3_EGFR d19/CS cells; [4]) [nM] | IC50 [1] [nM] | IC50 (Ba/F3_EGFR WT cells; 72 h) [nM] | IC50 (BaF3_EGFR LR/CS cells; 72 h) [nM] | IC50 (BaF3_EGFR d19/CS cells; 72 h) [nM]
CC(=O)NCCn1cc(-c2ncnc3oc(-c4ccccc4)cc23)c(-c2ccc(F)cc2)n1 [Example 134, N-{2-[3-(4-Fluorophenyl)-4-(6-phenylfuro[2,3-d]pyrimidin-4-yl)-1H-pyrazol-1-yl]ethyl}acetamide] | – | – | – | 0.3 | 1030 | 33.3 | 57.1
CC(=O)NCCCn1cc(-c2ncnc3oc(-c4ccccc4)cc23)c(-c2ccc(F)cc2)n1 [Example 141, N-{3-[3-(4-Fluorophenyl)-4-(6-phenylfuro[2,3-d]pyrimidin-4-yl)-1H-pyrazol-1-yl]propyl}acetamide] | – | – | – | 0.25 | 921 | 43.6 | 66.1

Reference: patent publication US20250034159A1, “INHIBITORS OF EPIDERMAL GROWTH FACTOR RECEPTOR” (ORIC Pharmaceuticals, Inc., priority 2021, published 2025)
